Assay results: the supplement of paper PMC11061612

Key:
Assay in all cases: combination Emax (second highest fraction inhibited in the dose matrix, 72 h); higher = more inhibition; extreme values may be limits of the assay
GB-1 (Glioblastoma) = system: GB-1 (Glioblastoma)
In short: (§1)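 Cell lines in DMEM/F12 or RPMI with 10% FBS were plated in 1536-well plates, held 24 hours at 37°C, 5% CO2, then given two-drug dose matrices for 72 hours (DMSO typically 0.2%). Viability was read by CellTiter-Glo 2.0 luminescence and scaled as inhibition from 0 (vehicle wells) to 1 (blank wells). Combination Emax is the second-highest inhibition in the matrix; Bliss excess is observed combination effect minus expected EA + EB − EA·EB, EA and EB being single-agent effects.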

[1] = system: NCI-H23 (Lung Adenocarcinoma)
In short: as §1

[2] = system: LK-2 (Squamous Cell Lung Carcinoma)
In short: as §1

[3] = system: OAW-42 (Ovarian Carcinoma)
In short: as §1

[4] = system: PANC-03-27 (Pancreatic Carcinoma)
In short: as §1

SF539 (Glioblastoma) = system: SF539 (Glioblastoma)
In short: as §1

Row | Compound | combination Emax (GB-1 (Glioblastoma)) | combination Emax [1] | combination Emax [2] | combination Emax [3] | combination Emax [4] | combination Emax (SF539 (Glioblastoma))
1 | Cc1c2c(nn1C)CSCc1cc(n(C)n1)CSc1cc(c3ccccc3c1)OCCCc1c(C(=O)O)n(C)c3c-2c(Cl)ccc13 [AZD5991] + CC1(C)CCC(CN2CCN(c3ccc(C(=O)NS(=O)(=O)c4ccc(NCC5CCOCC5)c([N+](=O)[O-])c4)c(Oc4cnc5[nH]ccc5c4)c3)CC2)=C(c2ccc(Cl)cc2)C1 [Venetoclax] (first compound max 1 µM, 7x7, partner max 1 µM) | 0.133 | 0.899 | 0.302 | 0.37 | 0.188 | 0.544
2 | Cc1c2c(nn1C)CSCc1cc(n(C)n1)CSc1cc(c3ccccc3c1)OCCCc1c(C(=O)O)n(C)c3c-2c(Cl)ccc13 [AZD5991] + CCN(CCO)CCCOc1ccc2c(Nc3cc(CC(=O)Nc4cccc(F)c4)[nH]n3)ncnc2c1 [AZD2811] (first compound max 1 µM, 7x7, partner max 1 µM) | 0.264 | 0.926 | 0.962 | 0.288 | 0.517 | 0.553
3 | Cc1c2c(nn1C)CSCc1cc(n(C)n1)CSc1cc(c3ccccc3c1)OCCCc1c(C(=O)O)n(C)c3c-2c(Cl)ccc13 [AZD5991] + CN(C)CCCOc1ccc(-c2ccc3ncc4c(c3c2)n(C2CCOCC2)c(=O)n4C)cn1 [AZD0156] (first compound max 1 µM, 7x7, partner max 1 µM) | 0.186 | 0.913 | 0.183 | 0.556 | 0.254 | 0.302
4 | Cc1c2c(nn1C)CSCc1cc(n(C)n1)CSc1cc(c3ccccc3c1)OCCCc1c(C(=O)O)n(C)c3c-2c(Cl)ccc13 [AZD5991] + C[C@@H]1COCCN1C2=NC(=NC(=C2)C3(CC3)[S@](=N)(=O)C)C4=C5C=CNC5=NC=C4 [AZD6738] (first compound max 1 µM, 7x7, partner max 10 µM) | 0.489 | 0.977 | 0.357 | 0.644 | 0.819 | 0.919
5 | Cc1c2c(nn1C)CSCc1cc(n(C)n1)CSc1cc(c3ccccc3c1)OCCCc1c(C(=O)O)n(C)c3c-2c(Cl)ccc13 [AZD5991] + C[C@@H](Nc1cc(F)cc(F)c1)c1cc(C(=O)N(C)C)cc2c(=O)cc(N3CCOCC3)oc12 [AZD8186] (first compound max 1 µM, 7x7, partner max 3 µM) | 0.219 | 0.896 | 0.196 | 0.277 | 0.354 | 0.438
6 | Cc1c2c(nn1C)CSCc1cc(n(C)n1)CSc1cc(c3ccccc3c1)OCCCc1c(C(=O)O)n(C)c3c-2c(Cl)ccc13 [AZD5991] + Cc1cc2ncnn2cc1Nc1ncc2c(n1)n(C1CCOCC1)c(=O)n2C [AZD7648] (first compound max 1 µM, 7x7, partner max 10 µM) | 0.264 | 0.934 | 0.198 | 0.502 | 0.261 | 0.41
7 | Cc1c2c(nn1C)CSCc1cc(n(C)n1)CSc1cc(c3ccccc3c1)OCCCc1c(C(=O)O)n(C)c3c-2c(Cl)ccc13 [AZD5991] + Cn1cnc2c(F)c(Nc3ccc(Br)cc3Cl)c(C(=O)NOCCO)cc21 [Selumetinib] (first compound max 1 µM, 7x7, partner max 3 µM) | 0.174 | 0.934 | 0.203 | 0.263 | 0.597 | 0.427
8 | COc1cccc(OCCCN)c1-c1cc(Nc2cnc(C#N)cn2)n[nH]1 [Prexasertib] + CCc1c2c(nc3ccc(O)cc13)-c1cc3c(c(=O)n1C2)COC(=O)[C@]3(O)CC [SN-38] (first compound max 1 µM, 7x7, partner max 0.3 µM) | 0.836 | 0.948 | 0.932 | 0.827 | 0.954 | 1
9 | CC(=O)Nc1cccc(-n2c(=O)n(C3CC3)c(=O)c3c(Nc4ccc(I)cc4F)n(C)c(=O)c(C)c32)c1 [Trametinib] + Cc1nc(-c2cn3c(n2)-c2ccc(-c4cnn(C(C)(C)C(N)=O)c4)cc2OCC3)n(C(C)C)n1 [Taselisib] (first compound max 1 µM, 7x7, partner max 10 µM) | 0.845 | 0.686 | 0.608 | 0.969 | 0.982 | 0.989
10 | CC1(C)CCC(CN2CCN(c3ccc(C(=O)NS(=O)(=O)c4ccc(NCC5CCOCC5)c([N+](=O)[O-])c4)c(Oc4cnc5[nH]ccc5c4)c3)CC2)=C(c2ccc(Cl)cc2)C1 [Venetoclax] + C1CN(CCC1(C(=O)N[C@@H](CCO)C2=CC=C(C=C2)Cl)N)C3=NC=NC4=C3C=CN4 [Capivasertib] (first compound max 1 µM, 7x7, partner max 3 µM) | 0.185 | 0.119 | 0.177 | 0.368 | 0.626 | 0.551
11 | CC1(C)CCC(CN2CCN(c3ccc(C(=O)NS(=O)(=O)c4ccc(NCC5CCOCC5)c([N+](=O)[O-])c4)c(Oc4cnc5[nH]ccc5c4)c3)CC2)=C(c2ccc(Cl)cc2)C1 [Venetoclax] + C=CCn1c(=O)c2cnc(Nc3ccc(N4CCN(C)CC4)cc3)nc2n1-c1cccc(C(C)(C)O)n1 [AZD1775] (first compound max 1 µM, partner max 1 µM) | 0.296 | 0.855 | 0.932 | 0.436 | 0.855 | 0.972
